Assay results published in patent publication US20190133933A1, “FORMULATIONS AND METHODS FOR REDUCTION OF INTRAOCULAR PRESSURE” (CLEARSIDE BIOMEDICAL, INC., priority 2016, published 2019).

Test system: normotensive dogs
Assay: Poststudy efficacy challenge: single topical ocular dose, IOP followed for 24 hours
Format: in vivo, female beagle dogs
Procedure: IOP was measured by using a TonoVet according to a study-specific procedure. IOP measurements consisted of three independent readings per eye per time point from each eye. Following approximately 4 weeks of washout, animals in both groups were administered latanoprost in the right eye and phosphate-buffered saline (PBS) in the left eye, and IOP measurements were followed for 24 hours. As applicable, the dosing solution was drawn up into a 1-mL luer-lock syringe using a standard 21-gauge, 1-inch needle. Bubbles were expressed and the standard needle was replaced by a 30-gauge microneedle 1100 μm in length. […] Following the injection, the needle was kept in the eye for approximately 10 seconds before being withdrawn. Upon withdrawal of the microneedle, a cotton-tipped applicator (CTA, dose wipe) was placed over the injection site for approximately 10 seconds. The right eye was dosed first and all post-dose times were based on the time of dosing of the second (left) eye.
Approximately 8 weeks after dose administration, all animals underwent a poststudy efficacy challenge. A positive displacement pipette was used to administer a single 35-μL dose of latanoprost to the right eye and phosphate-buffered saline (PBS) to the left eye. IOP was measured prior to dose administration (approximately −1 and 0 hours), and at 2, 4, 6, 8, and 24 hours following treatment. […]

## CC(C)OC(=O)CCC/C=C\C[C@@H]1[C@@H](CC[C@@H](O)CCc2ccccc2)[C@H](O)C[C@@H]1O [Latanoprost]
Right eyes vs PBS left eyes kept at about baseline (FIGS. 13-16)
  effect on IOP: decreased the IOP
Single 35-μL topical ocular dose, right eye, Groups 1 and 2
  mean maximum effective decrease (Emax) in IOP values: 3-5 mm Hg
